Legend:
[1] = system: rat adipose derived cells; test: Ki-67 proliferation marker immunohistochemical staining in 3D TG-Gel culture; assay type: cell-based
Method: 10^6/m1 rat adipose derived cells was suspended in the gelatin-transglutaminase crosslinked gel also referred to TG-Gel. Gel concentrations ranged from 3%, 4.5%, 6%, and 7.5%. A cell suspension in 20 μL volume was transferred in each well of 48 well culture plate followed by incubation at 37° C. for 30 min for gelation. 1.0 ml of medium (10%FBS/DMEM) with 5 nM Aza was added in each well and the plate was placed in a 5% CO2 37° C. incubator for 5 day culture. At day 5, cell proliferation marker (Ki-67) immune histochemical staining was performed on 3D culture. Medium without Aza was used as control.
The detection of Ki67, a proliferation marker, was performed using Anti-Ki-67 (Rabbit Monoclonal antibody, Clone SP6, from Thermo Scientific).

Fisher rats = test: Cartilage defect model (osteochondral defect in trochlear groove), histology; assay type: in vivo, rat; details: 4.5% Tg-Gel + 50 μL Aza (500 nM) implanted in defect; at 7 days; cell morphology resembles chondrogenic cells
Method: (§1) Fisher rats (7-8-weeks old, 200-250 g each) were used in this study. They were randomly enrolled into two experimental groups,A, 4.5% Tg-Gel +50 μL PBS and B, 4.5% Tg-Gel +50 μL Aza (500 nM), 4 animals per group. A 3-mm diameter×2-mm deep osteochondral defect was drilled into the rat trochlear groove, using a dermal biopsy punch (Miltex, Inc.). Implant gel was placed in the defect area. Skin was closed with 4-0 suture. […]
as §1, with “Tg-Gel+50” for “Tg-Gel +50”, “diamete×2-mm” for “diameter×2-mm”

[2] = system: rat adipose derived cells; test: Alizarin Red S calcium deposition, osteogenic differentiation in 3D TG-Gel culture; assay type: cell-based; details: day 14
Method: Using the matrix as described above, the medium was changed to regular growth medium at day 5 and maintained for 14 days. Alkaline phosphatase (ALP) activity and staining were performed to characterize early osteogenesis at day 5 and calcium staining at day 14. ALP activity was determined by biochemical assay based on conversion of p-nitrophenyl phosphate to p-nitrophenol (pNPP), which was measured spectrophotometrically at 405 nm absorbance. Briefly, TG-Gel-Cell, a transglutaminase crosslinked gelatin gel and cell mixture, construct was washed twice with PBS and homogenized with buffer solution (0.25% TritonX-100 in PBS). After three freezing-thawing cycles, cells were released from TG-Gel by adding 50 μL of 0.25% trypsin and incubated at 37° C. for 4 hours. ALP activity was then quantified by using p-NPP as a substrate (Pierce, USA). The absorbance was measured by a multiplate reader (Molecular Devices, CA) after 30 minutes of incubation at 37° C. The ALP activity was specified as an arbitrary unit of ALP absorbance that normalized with cell numbers. Alizarin Red S staining as late marker of osteogenic differentiation was performed to determine the degree of calcium deposition as described. […] The supernatant was collected and absorbance was measured by a multiplate reader (Molecular Devices, CA). […]

adipose cell 3D culture = test: Anti-MyoD staining, myogenesis differentiation in adipose cell 3D culture; assay type: cell-based; details: w/AZA-CR
Source text: A myogenic marker such as MyoD was stained on day 14 adipose cell 3D culture. The anti-MyoD antibody is a monoclonal available from Pierce.

[3] = system: >8 month old retired rats; test: Cranial defect model, bone growth and healing by histology; assay type: in vivo, rat; details: 500 nM Aza in collagen sponge; 5 mm skull defect; no exogenous BMP-2; four weeks
Method: Collagen matrix (as described above) was prepared and cut into 5 mm discs. An 5 mm diameter circular opening was created in the skull of >8 month old retired rats using circular drill bit including a lip to restrict the depth of the circular cutting. 500 nM of Aza was applied directly into the collagen sponge before implantation. Control included collagen discs without added Aza-CR but same volume of PBS. After four weeks of implantation, bone growth and healing status were evaluated histologically.

[4] = system: rat adipose derived cells; test: Alkaline phosphatase (ALP) activity, osteogenic differentiation in 3D TG-Gel culture; assay type: cell-based; details: day 5
Method: Using the matrix as described above, the medium was changed to regular growth medium at day 5 and maintained for 14 days. Alkaline phosphatase (ALP) activity and staining were performed to characterize early osteogenesis at day 5 and calcium staining at day 14. ALP activity was determined by biochemical assay based on conversion of p-nitrophenyl phosphate to p-nitrophenol (pNPP), which was measured spectrophotometrically at 405 nm absorbance. Briefly, TG-Gel-Cell, a transglutaminase crosslinked gelatin gel and cell mixture, construct was washed twice with PBS and homogenized with buffer solution (0.25% TritonX-100 in PBS). After three freezing-thawing cycles, cells were released from TG-Gel by adding 50 μL of 0.25% trypsin and incubated at 37° C. for 4 hours. ALP activity was then quantified by using p-NPP as a substrate (Pierce, USA). The absorbance was measured by a multiplate reader (Molecular Devices, CA) after 30 minutes of incubation at 37° C. The ALP activity was specified as an arbitrary unit of ALP absorbance that normalized with cell numbers. Alizarin Red S staining as late marker of osteogenic differentiation was performed to determine the degree of calcium deposition as described. […] The supernatant was collected and absorbance was measured by a multiplate reader (Molecular Devices, CA).

MSC or adipose cells = test: Anti-N-cadherin staining, cardiomyocyte differentiation; assay type: cell-based; details: w/AZA-CR; 4.5% TG-Gel

Nc1ncn([C@@H]2O[C@H](CO)[C@@H](O)[C@H]2O)c(=O)n1 [AZA-CR, 5-azacytidine]
Ki67 positive staining, Aza group versus control ([1]; 3%-4.5% gel condition): no difference | Ki67 positive staining, Aza group versus control ([1]; 6%-7% gel condition, evenly distributed in whole 3D construct): significantly more positive stained cells | Anti - Ki67, Center ([1]; w/AZA-CR (5 nM Aza in medium), 4.5% TG-Gel, day 5): ~30% | Anti - Ki67, Center and Peripheral (evenly distributed) ([1]; w/AZA-CR (5 nM Aza in medium), 6% TG-Gel, day 5): Evenly distributed (~80%) | Anti - Ki67, Center and Peripheral (evenly distributed) ([1]; w/AZA-CR (5 nM Aza in medium), 7.5% TG-Gel, day 5): Evenly distributed (~50%) | histology of osteochondral defect site, area adjacent to subchondral bone (Fisher rats): neo cell infiltration | calcium deposition ([2]; versus without AZA-CR): enhanced | TG-Gel concentration at which calcium deposition peaked ([2]; with and without AZA-CR): 9 % TG-Gel | Anti-MyoD on day 14, Center and Peripheral (evenly distributed) (adipose cell 3D culture; 4.5% TG-Gel): ~80% Evenly Distributed | Anti-MyoD on day 14, Center and Peripheral (evenly distributed) (adipose cell 3D culture; 6% TG-Gel): ~70% Evenly Distributed | bone remodeling at the bony defect site [3]: significant bone remodeling | ALP activity ([4]; versus without AZA-CR): enhanced | TG-Gel concentration at which ALP peaked ([4]; with and without AZA-CR): 6 % TG-Gel | Anti-N-Cadherin, Center (MSC or adipose cells): ~50%

From patent US20170182080A1, “FUNCTIONAL SCAFFOLD FOR TISSUE REPAIR AND REGENERATION” (priority 2014, published 2017)
